According to patent US8703698B2, “Compositions and methods for treating atherosclerosis” (The University of Chicago, priority 2003, dated 2014):

Experiments:
J774 macrophages = assay: [3H]cholesterol efflux from cholesterol-loaded J774 macrophages in tissue culture; type: cell-based, mouse; settings: for 3H-cholesterol exported into the media after 24 hours (FIG. 19): peptide/lipid mixture by microfluidizer
THP-1 cells = assay: Cholesterol efflux from cholesterol-laden human THP-1 cells; type: cell-based; settings: for 3H-cholesterol exported into the media after 24 hours (FIG. 19): peptide/lipid mixture by microfluidizer, human THP-1 cells
NR8383 cells = assay: Cholesterol export from rat NR8383 macrophages; type: cell-based; settings: peptide/lipid mixture by microfluidizer
Description: In these experiments, mouse J774 cells, human THP-1 cells and rat NR8383 cells were loaded with red blood cell membranes containing ^3H-cholesterol in accordance with procedures outlined in Example 4. The peptides were prepared as lipid mixtures using a microfluidizer procedure. Briefly, 3 mg of the 20-mer synthetic peptide (SEQ ID NO:30) or the 19-mer synthetic peptide (SEQ ID NO:12) was mixed with 5 ml cyclohexane and sonicated (output power of 14 watts) for 20-seconds followed by a 10-second interval. Separately, 2-oleyl-1-palmitoyl-sn-glycero-3-phosphocholine (Sigma-Aldrich P3017; 67.8 mg) and cholesterol (9.66 mg) were dissolved in 2 ml of chloroform, vortexed and transferred to a 500 ml round bottom flask. The two mixtures (i.e. cyclohexane/peptide and phosphatidylcholine/cholesterol solutions) were then combined. The combined solution was dried using nitrogen gas while swirling the flask, resulting in a thin layer of lipid at the bottom half of the flask. In order to ensure that the thin layer of lipid residue was completely dry, nitrogen gas was streamed over the lipid layer for an additional 10 minutes. […] Efficacy of the peptides was determined as the amount ^3H-cholesterol exported into the media after 24 hours. […]

[1] = test system: [3H]-cholesterol-loaded J774 macrophages; assay: In vivo cholesterol efflux to plasma in mice injected with [3H]-cholesterol-loaded J774 macrophages; settings: for 3H-cholesterol export into the plasma, dose response (FIGS. 17 and 18): liposome formulated, intravenous, 2, 4, 8, 16 or 32 μg/100 μl per mouse, 6 to 48 hours; for radiolabeled cholesterol exported in the plasma (FIG. 15): non-liposome formulated, in 100 μl PBS, intravenous, 15 μg/mouse peptide or 75 μg/mouse full length protein
Description: In these experiments, in vivo cholesterol export was determined in mice injected with J774 macrophages cholesterol-loaded with RBC membranes and [^3H]-cholesterol. Two hundred thousand macrophages in 100:1 PBS were injected into each mouse through the tail vein. At various time points thereafter, approximately 25:1 of blood were collected from the tail vein of each animal into heparinized capillary tubes. The tubes were then centrifuged for 5 minutes in an Adams Autocrit Centrifuge to separate red blood cells from plasma. Cholesterol efflux was determined by measuring the appearance of [^3H]-cholesterol in plasma by scintillation spectrometry. To study whether export of cholesterol from J774 cells to plasma was influenced by non-liposome formulated D-27mer peptide (SEQ ID NO:10), 24 hours after injection of cholesterol-loaded J774 macrophages into mice, the same animals received, by intravenous injection, 30 μg, 60 μg, 150 μg, 225 μg, 300 μg or 600 μg of D-27mer. All these amounts of D-peptides were dissolved in 100:l of phosphate buffered saline and injected through the tail vein of each animal.
Additional in vivo studies have also been conducted wherein mice were first injected intravenously with [^3H]cholesterol-laden macrophages and then injected 24 hours later with liposomes containing 0.5 μM of synthetic peptides corresponding to amino acid residues 1-20, 21-50, 51-80 or 74-103 of murine SAA2.1. Results from this study are depicted in FIG. 1. At time points indicated in the graph of FIG. 1, approximately 25 μl of blood were collected from the tail vein of each animal. The blood samples were centrifuged to separate the red blood cells from the plasma and the [^3H]-cholesterol in plasma was determined by scintillation counting. Results are mean±SEM of four determinations.
To determine cholesterol export in vivo, J774 macrophages were cholesterol-loaded with red blood cell membranes and [^3H]-cholesterol as described above. Cells were washed four times with PBS/BSA and then detached from the culture dishes. Five million cells in 200 μl DMEM were injected into control mice or inflamed mice through the tail vein. At various time points, approximately 25 μl of blood were collected from the tail vein of each animal into heparinized capillary tubes and then centrifuged for 5 minutes in an Adams Autocrit Centrifuge to separate red blood cells from plasma. Cholesterol efflux was determined by measuring the appearance of [^3H]-cholesterol in plasma by scintillation spectrometry.
J774 cells cultured in 6-well plates were enriched with cholesterol by incubating with red blood cell (RBC) membrane fragments (175:g as cholesterol) that had been previously labeled with 0.5:Ci/ml [^3H]-cholesterol at 37° C. for 24 hours in 0.2% bovine serum albumin (BSA). After loading with the labelled RBC membrane for 6 hours, cells were then washed with phosphate-buffered saline/BSA (PBS/BSA) three times followed by an 18 hour equilibration period during which monolayers were exposed to DMEM/BSA. To determine cholesterol export in vivo, J774 macrophages were cholesterol-loaded with RBC membranes and [^3H]-cholesterol as described previously above. Cells were washed four times with PBS/BSA and then detached from the culture dishes. Two hundred thousand cells in 100:l PBS were injected into mice through the tail vein. At various time points thereafter, approximately 25:l of blood were collected from the tail vein of each animal into heparinized capillary tubes. These tubes were then centrifuged for 5 minutes in an Adams Autocrit Centrifuge to separate red blood cells from plasma. Cholesterol efflux was determined by measuring the appearance of [^3H]-cholesterol in plasma by scintillation spectrometry. […]

[2] = target: macrophage acyl CoA:cholesterol acyl transferase (murine)
[3] = target: macrophage cholesterol ester hydrolase (murine)
[4] = target: T1, acyl CoA:cholesterol acyl transferase (Mus musculus, UniProt Q61263); settings: intact murine macrophages and post-nuclear homogenates; Ely et al. 2001; cited from earlier work
T1 construct: The relative activity of acyl CoA:cholesterol acyl transferase was determined in cholesterol-laden cells; host or cells: J774 mouse macrophages, cholesterol-loaded
T1 sequence (Q61263 1-540): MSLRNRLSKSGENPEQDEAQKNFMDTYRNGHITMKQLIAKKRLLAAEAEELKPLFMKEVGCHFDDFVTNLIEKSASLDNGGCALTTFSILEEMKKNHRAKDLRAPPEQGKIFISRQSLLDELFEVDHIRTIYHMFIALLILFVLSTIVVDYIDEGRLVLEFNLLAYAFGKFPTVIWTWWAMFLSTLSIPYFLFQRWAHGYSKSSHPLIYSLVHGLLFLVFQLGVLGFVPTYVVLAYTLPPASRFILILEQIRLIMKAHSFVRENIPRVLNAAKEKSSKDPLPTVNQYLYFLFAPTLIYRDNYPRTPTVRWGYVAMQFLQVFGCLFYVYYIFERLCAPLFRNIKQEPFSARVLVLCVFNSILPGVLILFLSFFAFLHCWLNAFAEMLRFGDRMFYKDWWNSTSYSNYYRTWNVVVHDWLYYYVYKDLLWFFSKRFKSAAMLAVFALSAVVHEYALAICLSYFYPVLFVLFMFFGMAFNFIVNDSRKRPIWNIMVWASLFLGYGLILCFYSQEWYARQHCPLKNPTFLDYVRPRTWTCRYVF

[5] = test system: hepatic, macrophage, and pancreatic cholesterol esterase; settings: Lindhorst 1997; Ely 2001; Tam 2002; cited from earlier work

In the case of “ADQAANEWGRSGKDPNHFR [SEQ ID NO:12, consensus 19-mer, residues 78-96 of human SAA1.1]”, the “cholesterol export enhancing activity, time course (FIG. 9)” value (J774 macrophages; liposomal formulations, mouse J774 cells) is reported as “greatest cholesterol export enhancing activity”, the “increase of cholesterol efflux with dose compared to mouse peptide SEQ ID NO:4 (FIGS. 5A and 5B)” value (J774 macrophages; liposomes, 0.05 to 5.0 μM, macrophages) is reported as “at least as effective if not more effective” and the “3H-cholesterol exported into the media after 24 hours (FIG. 19)” value (shortened to “3H-cholesterol exported into the media”) (J774 macrophages; mouse J774 cells) is reported as “equally effective in inducing cholesterol export”. For the same molecule, the “cholesterol efflux, time course at various concentrations (FIG. 6)” value (THP-1 cells; liposomal formulations, 0.05 to 5.0 μM) was “continued to increase over a time period from 0 to 24 hours”, the “3H-cholesterol exported into the media” value (THP-1 cells) was “equally effective in inducing cholesterol export” and the “3H-cholesterol exported into the media” value (NR8383 cells) was “equally effective in inducing cholesterol export”. The “3H-cholesterol export into the plasma, dose response (FIGS. 17 and 18)” value [1] was “increased efficacy as the dose increased” and the “radiolabeled cholesterol exported in the plasma (FIG. 15)” value [1] was “no effect on cholesterol efflux”.

For “RSFFSFLGEAFDGARDMWRA [SEQ ID NO:30, 20-mer, residues 1-20 of human SAA1.1 or SAA2.1]”, the “3H-cholesterol exported into the media” value (J774 macrophages; mouse J774 cells) was “equally effective in inducing cholesterol export”, the “3H-cholesterol exported into the media” value (THP-1 cells) was “equally effective in inducing cholesterol export” and the “3H-cholesterol exported into the media” value (NR8383 cells) was “equally effective in inducing cholesterol export”. For the same molecule, the “3H-cholesterol export into the plasma, dose response (FIGS. 17 and 18)” value [1] was “increased efficacy as the dose increased” and the “radiolabeled cholesterol exported in the plasma (FIG. 15)” value [1] was “no effect on cholesterol efflux”.

GFFSFVHEAFQGAGDMWRAY [synthetic peptide corresponding to amino acid residues 1-20 of murine SAA2.1] gave an acyl CoA:cholesterol acyl transferase activity (incorporation of [14C]oleate into cholesteryl ester), cholesterol-laden murine cells, liposomes with 0.5 µM peptide, 6 hour incubation (fold decrease) [2] of 2.

DTIADQEANRHGRSGKDPNYYRPPGLPDKY [synthetic peptide corresponding to amino acid residues 74-103 of murine SAA2.1] showed a rate of hydrolysis of [14C]-labeled cholesteryl oleate in J774 cells, re-esterification blocked with Sandoz 58-035 (fold increase) [3] of 3.

B1: KEANWKNSDKYFHARGNYDAAQRGPGGVWAAEKISDGREAFQEFFGRGHEDTIADQEAN RHGRSGKDPNYYRPPGLPDKY (protein)
chain: KEANWKNSDKYFHARGNYDAAQRGPGGVWAAEKISDGREAFQEFFGRGHEDTIADQEANRHGRSGKDPNYYRPPGLPDKY
notes: 80-mer cyanogen bromide fragment of murine SAA2.1, residues 24-103
In the case of B1, the “macrophage ACAT activity” value [4] is given as “no inhibitory effect on ACAT activity” and the “cholesterol esterase activities in vitro” value [5] is given as “effect was shown to reside”.
